Measurements: US10315994B2, “Photostable compounds, absorbing compounds and uses thereof” (Commonwealth Scientific and Industrial Research Organisation, priority 2015, dated 2019)
Entries after “also recorded” stand apart in the source; their conditions may differ. Each block holds one molecule with its values, some of them ahead of it.

How the values were obtained:
[1] = Photostability of thin films exposed to xenon arc lamp; type: physicochemical; settings: for Photostability, % remaining after irradiation: exposure to the lamp for 1 h; for % λmax (% of original absorbance remaining): absorbance at λmax, irradiated vs unirradiated; for % λmax (% of original absorbance remaining) / % abs total (% of original absorbance remaining): xenon arc lamp 1 hour, thin film; for % abs total (% of original absorbance remaining): sum of absorbance 290-400 nm
Description: 1 mL of a 3% solution of the test compound (30 mg of test compound in 1 mL solvent) was prepared in a solvent mix made up of 50% EtOH and 25% capric/caprylic triglyceride and 25% C12-C15 alkyl benzoate. 50 μL of this solution (containing 1.5 mg of test compound) was added carefully to the centre of a glass microscope slide and the volatile components left to evaporate in the dark for at least 3 hours to give a liquid film. […] The irradiation was performed in a fume cupboard where the air flow was sufficient to keep sample T<30° C. One hour's exposure represented a calculated radiation dose (using meter) of approximately 100 MED.
In order to calculate the photostability of the test compounds, the exposed slides were placed in a beaker and rinsed with 2×5 mL EtOH, 1×5 mL MeOH. The combined washings were then added to a 100 mL volumetric flask and made up to 100 mL total volume with methanol. The UV absorbance was then measured in a 10 mm cuvette. The percent stability is measured as the ratio of absorbance at λmax for the irradiated sample compared to the unirradiated sample. As a further measure, a comparison of the sum of the absorbance in the 290-400 nm range was calculated.
The thin films are a good surrogate for testing the stability of a candidate in a sunscreen formulation as they use cosmetic emollients as solvent and are formed at cosmetically relevant concentrations.

[2] = UV/visible absorbance characteristics (λmax, λcrit, ε, E 1%,1 cm); type: physicochemical
[3] = Table 1, in M-1 cm-1 (unit assumed)
[4] = Table 2, in M-1 cm-1 (unit assumed)

Photostability (%) ([1]; Table 7, benzoyl derivatives): 30%
Photostability, % remaining after irradiation [1]: 30%
SMILES: CN(C)c1ccc(C(=O)C2=CN(C(C)(C)C)CCC2(C)C)cc1 [Compound 86]

Photostability (%) ([1]; Table 7, benzoyl derivatives): 38%
SMILES: CC(C)(C)Oc1ccc(C(=O)C2=CN(C(C)(C)C)CCC2(C)C)cc1 [Compound 88]

% λmax (% of original absorbance remaining) [1]: 11%
Photostability, % remaining after irradiation [1]: less than 20%
% abs total (% of original absorbance remaining) [1]: 21%
SMILES: CC1(C)CCN(C(C)(C)C)C=C1C(=O)CC(=O)c1ccccc1 [Compound 94]
Colour change on exposure to irradiation ([1]; film): goes from bright yellow to colourless; also recorded: became perfectly colourless

E (1%, 1 cm) ([2]; Table 1): 1380
λcrit ([2]; Table 1): 331 nm
λmax ([2]; Table 1): 315 nm
ε [2, 3]: 36298
E (1%, 1 cm) ([2]; Table 6): 1380
λcrit ([2]; Table 6): 331 nm
λmax ([2]; Table 6): 315 nm
ε ([2]; Table 6, in M-1 cm-1 (unit assumed)): 36298
Peak point of absorbance curve (figure legend) ([2]; unirradiated control, FIGS. 3-5): approximately 320 nm
Photostability (%) ([1]; Table 6): 89%
% λmax (% of original absorbance remaining) [1]: 88%
Photostability, % remaining after irradiation [1]: 88%
% abs total (% of original absorbance remaining) [1]: 84%
SMILES: CC1(C)CCN(C(C)(C)C)C=C1C(=O)C(F)(F)F [Compound 98]

E (1%, 1 cm) ([2]; Table 1): 628
SMILES: CCCCNc1ccc(C(=O)C2=CN(C(C)(C)C)CCC2(C)C)cc1 [Compound 102]

E (1%, 1 cm) ([2]; Table 1): 263
λcrit ([2]; Table 1): 391 nm
λmax ([2]; Table 1): 384 nm
ε [2, 3]: 7393
SMILES: CC1(C)C=CN(c2ccccc2)C=C1C(=O)C(F)(F)F [Compound 105]

E (1%, 1 cm) ([2]; Table 1): 1051
λcrit ([2]; Table 1): 363 nm
λmax ([2]; Table 1): 341 nm
ε [2, 3]: 60770
SMILES: CC1(C)CCN(c2ccc(Cc3ccc(N4C=C(C(=O)C(F)(F)F)C(C)(C)CC4)cc3)cc2)C=C1C(=O)C(F)(F)F [Compound 108]

E (1%, 1 cm) ([2]; Table 1): 923
λcrit ([2]; Table 1): 365 nm
λmax ([2]; Table 1): 343 nm
ε [2, 3]: 53548
SMILES: CC1(C)CCN(c2ccc(Oc3ccc(N4C=C(C(=O)C(F)(F)F)C(C)(C)CC4)cc3)cc2)C=C1C(=O)C(F)(F)F [Compound 111]

E (1%, 1 cm) ([2]; Table 1): 1120
λcrit ([2]; Table 1): 386 nm
λmax ([2]; Table 1): 367 nm
ε [2, 3]: 54658
E (1%, 1 cm) ([2]; Table 2): 1120
λcrit ([2]; Table 2): 387 nm
λmax ([2]; Table 2): 367 nm
ε [2, 4]: 54658
SMILES: CC1(C)CCN(c2ccc(N3C=C(C(=O)C(F)(F)F)C(C)(C)CC3)cc2)C=C1C(=O)C(F)(F)F [Compound 116]

E (1%, 1 cm) ([2]; Table 1): 657
λcrit ([2]; Table 1): 382 nm
λmax ([2]; Table 1): 349 nm
ε [2, 3]: 25890
SMILES: CC1(C)CCN(c2ccc(N3C=C(C(=O)C(F)(F)F)C(C)(C)CC3)cc2)CC1 [Compound 117]

ε [2, 3]: 56063
SMILES: CCC(=O)C1=CN(c2ccc(Oc3ccc(N4C=C(C(=O)CC)C(C)(C)CC4)cc3)cc2)CCC1(C)C [Compound 118]

% λmax (% of original absorbance remaining) [1]: 60%
% abs total (% of original absorbance remaining) [1]: 60%
SMILES: CC(C)CN1C=C(C(=O)C(C)(C)C)C(C)(C)CC1 [Compound 145]

% λmax (% of original absorbance remaining) [1]: 89%
% abs total (% of original absorbance remaining) [1]: 88%
SMILES: CC(C)CN1C=C(C(=O)C(F)(F)F)C(C)(C)CC1 [Compound 146]

SMILES: CC1(C)CCN(c2ccc(N3C=C(C(=O)C(F)(F)C(F)(F)C(F)(F)F)C(C)(C)CC3)cc2)C=C1C(=O)C(F)(F)C(F)(F)C(F)(F)F [Compound 158]
E (1%, 1 cm) ([2]; Table 1): 750
λcrit ([2]; Table 1): 388 nm
λmax ([2]; Table 1): 369 nm
ε [2, 3]: 51600
E (1%, 1 cm) ([2]; Table 2): 750
λcrit ([2]; Table 2): 388 nm
λmax ([2]; Table 2): 369 nm
ε [2, 4]: 51600

% λmax (% of original absorbance remaining) [1]: 55%
SMILES: Cc1ccc(NC(=O)C2=CN(C(C)(C)CC(C)(C)C)CCC2(C)C)cc1NC(=O)C1=CN(C(C)(C)CC(C)(C)C)CCC1(C)C [Compound 161]

Photostability, % remaining after irradiation [1]: 76%
SMILES: CC1(C)CCN(C(C)(C)C)C=C1C(=O)c1ccccc1 [Compound 179]

Photostability (%) ([1]; Table 7, benzoyl derivatives): 90%
SMILES: CC1(C)CCN(C(C)(C)C)C=C1C(=O)c1c(F)cccc1F [Compound 184]

λmax ([2]; Table 7, benzoyl derivatives): 315 nm
SMILES: CC1(C)CCN(C(C)(C)C)C=C1C(=O)c1c(F)c(F)c(F)c(F)c1F [Compound 185]

UV λmax ([2]; synthesis section): 316 nm
ε ([2]; synthesis section): 41598 M⁻¹ cm⁻¹
SMILES: CCCCC(CC)CN(c1ccc(C(=O)C2=CN(C(C)(C)C)CCC2(C)C)cc1)c1ccc(C(=O)C2=CN(C(C)(C)C)CCC2(C)C)cc1 (centres unmarked) [drawing 95, (((2-ethylhexyl)azanediyl)bis(4,1-phenylene))bis((1-(tert-butyl)-4,4-dimethyl-1,4,5,6-tetrahydropyridin-3-yl)methanone)]

SMILES: CC1(C)CCN(C(C)(C)C)C=C1C(=O)C(F)(F)C(F)(F)C(F)(F)C(=O)C1=CN(C(C)(C)C)CCC1(C)C [drawing 123]
E (1%, 1 cm) ([2]; Table 5): 1177
λcrit ([2]; Table 5): 337 nm
λmax ([2]; Table 5): 317 nm
ε ([2]; Table 5, in M-1 cm-1 (unit assumed)): 63346
